# Values of other authors, collected in PubChem BioAssay AID1259409 (Chemical Carcinogenesis Research Information System (CCRIS), 2018).
# Tested on: rodent chemically induced tumor inhibition, incidence and multiplicity
# Test: CCRIS tumor inhibitor studies
# Details: Carcinogen: ETHYL METHANESULFONATE, 62-50-0, Dose [Inhibitor]: 0, Route [Inhibitor]: INTRAMUSCULAR, Species: RAT, Strain/Sex: WISTAR/FEMALE, Target Tissue: Type of Lesion: MAMMARY GLAND: CARCINOMA, Dose [Carcinogen]: 0.001 MOLAR SOLUTION IN TAP WATER FOR 12 WK, Promoter: NONE USED
smiles,measurement,setting,value
CCCCC[C@H](O)/C=C/[C@@H]1[C@@H](C/C=C\CCCC(=O)O)[C@@H](O)C[C@H]1O,"tumour outcome (control, treated, inhibition, significance)",1 MG/KG IN SESAME OIL 2/WK FOR 8 WK ADMINISTERED CONCOMITANTLY WITH CARCINOGEN TREATMENT (STUDY DURATION: 44 WK),"100%, 61%, 39%, p<0.01"
same,"tumour outcome (control, treated, inhibition, significance)",1 MG/KG IN SESAME OIL 2/WK FOR 8 WK BEGINNING POST CARCINOGEN TREATMENT (STUDY DURATION: 44 WK),"100%, 88%, 12%, not significant"
